target: T1, human CRTH2 (Homo sapiens, UniProt Q9Y5Y4); assay: Human CRTH2 Receptor Binding Assay (whole cell, [3H]ramatroban competition); details: CHO-K1 cells stably expressing human CRTH2 and G-alpha16; 20 nM [3H]ramatroban; 1 hour, room temperature
T1 construct: expressed in transfected cells
T1 sequence (Q9Y5Y4 1-395): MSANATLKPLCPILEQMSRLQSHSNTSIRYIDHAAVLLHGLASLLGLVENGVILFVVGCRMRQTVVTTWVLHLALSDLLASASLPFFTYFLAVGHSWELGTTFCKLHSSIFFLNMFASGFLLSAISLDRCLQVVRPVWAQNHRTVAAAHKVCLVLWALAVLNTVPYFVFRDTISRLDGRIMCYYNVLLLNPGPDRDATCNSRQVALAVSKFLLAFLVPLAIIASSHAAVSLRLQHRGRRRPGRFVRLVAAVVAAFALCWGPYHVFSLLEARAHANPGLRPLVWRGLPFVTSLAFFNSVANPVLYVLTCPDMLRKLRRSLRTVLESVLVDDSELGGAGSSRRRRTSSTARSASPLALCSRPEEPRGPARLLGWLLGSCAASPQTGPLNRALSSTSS
Excerpt: A whole cell receptor binding assay using [^3H]ramatroban as the competing radioactive ligand was employed to evaluate the compound binding activity to human CRTH2. The radioactive ligand [^3H]ramatroban was synthesized according to Sugimoto et. al. (Eur. J. Pharmacol. 524, 30-37, 2005) to a specific activity of 42 Ci/mmol.
A cell line stably expressing human CRTH2 was established by transfecting CHO-K1 cells with two mammalian expression vectors that harbored human CRTH2 and G-alpha16 cDNAs, respectively, using FuGene® 6 transfection reagent (from Roche). Stable clones expressing CRTH2 were selected by staining each clone with BM16 (BD Pharmingen™ from BD Biosciences, a division of Becton, Dickinson and Company), which is a rat monoclonal antibody to human CRTH2. The cells were maintained as monolayer cultures in Ham's F-12 medium containing 10% fetal bovine serum, 100 units/mL penicillin, 100 μg/mL streptomycin, 2 mM glutamine, 0.5 mg/mL G418 (geneticin) for CRTH2, and 0.2 mg/mL hygromycin-B (for G-alpha 16). For whole cell receptor binding assay, the monolayer cells were rinsed once with PBS (phosphate buffered saline), dissociated using ethylenediaminetetraacetate (Versene™ EDTA from Lonza Inc.), and suspended in PBS containing 10 mM MgCl2 and 0.06% BSA (bovine serum albumin) at 1.5×10^6 cells/mL.
The binding reactions (0.2 mL) were performed in 96-well plates at room temperature in PBS containing 1.5×10^5 cells, 10 mM MgCl2, 0.06% BSA, 20 nM [^3H]ramatroban, and test compound at various concentrations. After 1 hour of binding reactions, the cells were harvested on GF™/B filter microplates (microtiter plates with embedded glass fiber from PerkinElmer, Inc.) and washed 5 times with PBS using a Filtermate™ Harvester (a cell harvester that harvests and washes cells from microplates from PerkinElmer, Inc.). The radioactivities bound to the cells were determined using a microplate scintillation counter (TopCount® NXT, from PerkinElmer, Inc.) after adding 50 μL of Microscint™ 20 scintillation fluid (from PerkinElmer, Inc.) to each well of the filter plates. The radioactivity from non-specific binding was determined by replacing compound with 10 μM of 15(R)-15-methyl PGD2 (from Cayman Chemical Company) in the reaction mixtures. The radioactivity bound to the cells in the absence of compound (total binding) was determined by replacing compound with 0.25% of DMSO (dimethyl sulfoxide) in the reaction mixture. Specific binding data were obtained by subtracting the radioactivity of non-specific binding from each binding data.
The IC50 value is defined as the concentration of the tested compound that is required for 50% inhibition of total specific binding. In order to calculate the IC50 value, the percent inhibition data were determined for 7 concentrations for each compound. The percent inhibition for a compound at each concentration was calculated according to the following formula, [1−(specific binding in the presence of compound)/(total specific binding)]×100. The IC50 value was then obtained by fitting the percent inhibition data to a sigmoidal dose-response (4 parameter logistic) model in the XLfit® software Excel add-in program [from ID Business Solutions Ltd., model 205, where F(x)=(A+(B−A)/(1+((C/x)^D)))].

Structure (SMILES)	IC50
CN([C@@H]1CCCc2c1cnn2CC(=O)O)S(=O)(=O)c1cc(SC2CCCC2)cc(C(F)(F)F)c1 [Example 9-1a, {(R)-4-[(3-Cyclopentylsulfanyl-5-trifluoromethyl-benzenesulfonyl)-methyl-amino]-4,5,6,7-tetrahydro-indazol-1-yl}-acetic acid]	12.6 nM
CCS(=O)(=O)c1cc(C(F)(F)F)cc(S(=O)(=O)N(C)[C@@H]2CCCc3c2cnn3CC(=O)O)c1 [Example 10-1a, {(R)-4-[(3-Ethanesulfonyl-5-trifluoromethyl-benzenesulfonyl)-methyl-amino]-4,5,6,7-tetrahydro-indazol-1-yl}-acetic acid]	2.5 nM
CN([C@@H]1CCCc2c1cnn2CC(=O)O)S(=O)(=O)c1cc(C(F)(F)F)cc(S(=O)(=O)C2CCCC2)c1 [Example 10-2a, {(R)-4-[(3-Cyclopentanesulfonyl-5-trifluoromethyl-benzenesulfonyl)-methyl-amino]-4,5,6,7-tetrahydro-indazol-1-yl}-acetic acid]	2.9 nM
CC(C)S(=O)(=O)c1cc(C(F)(F)F)cc(S(=O)(=O)N(C)[C@@H]2CCCc3c2cnn3CC(=O)O)c1 [Example 10-3a, ((R)-4-{Methyl-[3-(propane-2-sulfonyl)-5-trifluoromethyl-benzenesulfonyl]-amino}-4,5,6,7-tetrahydro-indazol-1-yl)-acetic acid]	2.1 nM
CN([C@@H]1CCCc2c1cnn2CC(=O)O)S(=O)(=O)c1cc(C(F)(F)F)cc(S(=O)(=O)C(C)(C)C)c1 [Example 10-4a, ((R)-4-{Methyl-[3-(2-methyl-propane-2-sulfonyl)-5-trifluoromethyl-benzenesulfonyl]-amino}-4,5,6,7-tetrahydro-indazol-1-yl)-acetic acid]	4.7 nM
CC(C)S(=O)(=O)c1cc(C(F)(F)F)cc(S(=O)(=O)N(C)[C@@H]2CCCc3c2cnn3CCC(=O)O)c1 [Example 10-5a, 3-((R)-4-{Methyl-[3-(propane-2-sulfonyl)-5-trifluoromethyl-benzenesulfonyl]-amino}-4,5,6,7-tetrahydro-indazol-1-yl)-propionic acid]	2.4 nM
CN([C@@H]1CCCc2c1cnn2CCC(=O)O)S(=O)(=O)c1cc(C(F)(F)F)cc(S(=O)(=O)C2CCCC2)c1 [Example 10-6a, 3-{(R)-4-[(3-Cyclopentanesulfonyl-5-trifluoromethyl-benzenesulfonyl)-methyl-amino]-4,5,6,7-tetrahydro-indazol-1-yl}-propionic acid]	3.3 nM
CN([C@@H]1CCCc2c1cnn2CCC(=O)O)S(=O)(=O)c1cc(C(F)(F)F)cc(S(=O)(=O)C(C)(C)C)c1 [Example 10-7a, 3-((R)-4-{Methyl-[3-(2-methyl-propane-2-sulfonyl)-5-trifluoromethyl-benzenesulfonyl]-amino}-4,5,6,7-tetrahydro-indazol-1-yl)-propionic acid]	12.5 nM
CC1(c2cc(C(F)(F)F)cc(S(=O)(=O)N[C@@H]3CCCc4c3cnn4CC(=O)O)c2)CC1 [Example 11-1a, {(R)-4-[3-(1-Methyl-cyclopropyl)-5-trifluoromethyl-benzenesulfonylamino]-4,5,6,7-tetrahydro-indazol-1-yl}-acetic acid]	7.8 nM
CC(C)c1cc(C(F)(F)F)cc(S(=O)(=O)N[C@@H]2CCCc3c2cnn3CC(=O)O)c1 [Example 12-1a, (R)-[4-(3-Isopropyl-5-trifluoromethyl-benzenesulfonylamino)-4,5,6,7-tetrahydro-indazol-1-yl]-acetic acid]	22 nM
CC(C)c1cc(C(F)(F)F)cc(S(=O)(=O)N(C)[C@@H]2CCCc3c2cnn3CC(=O)O)c1 [Example 13-1a, {(R)-4-[(3-isopropyl-5-trifluoromethyl-benzenesulfonyl)-methyl-amino]-4,5,6,7-tetrahydro-indazol-1-yl}-acetic acid]	7.3 nM
CN([C@@H]1CCCc2c1cnn2CC(=O)O)S(=O)(=O)c1cc(C(F)(F)F)cc(C2(C)CC2)c1 [Example 14-1a, ((R)-4-{Methyl-[3-(1-methyl-cyclopropyl)-5-trifluoromethyl-benzenesulfonyl]-amino}-4,5,6,7-tetrahydro-indazol-1-yl)-acetic acid]	6.2 nM
CCC1(c2cc(C(F)(F)F)cc(S(=O)(=O)N(C)[C@@H]3CCCc4c3cnn4CC(=O)O)c2)CC1 [Example 15-1a, ((R)-4-{[3-(1-Ethyl-cyclopropyl)-5-trifluoromethyl-benzenesulfonyl]-methyl-amino}-4,5,6,7-tetrahydro-indazol-1-yl)-acetic acid]	12.3 nM
C#Cc1cc(C(F)(F)F)cc(S(=O)(=O)NC2CCCc3c2cnn3CC(=O)O)c1 (stereo not shown) [Example 16-1a, [4-(3-Ethynyl-5-trifluoromethyl-benzenesulfonylamino)-4,5,6,7-tetrahydro-indazol-1-yl]-acetic acid]	69.8 nM
CN([C@@H]1CCCc2c1cnn2CC(=O)O)S(=O)(=O)c1cc(C(F)(F)F)cc([Si](C)(C)C)c1 [Example 17-1a, {(R)-4-[Methyl-(3-trifluoromethyl-5-trimethylsilanyl-benzenesulfonyl)-amino]-4,5,6,7-tetrahydro-indazol-1-yl}-acetic acid]	55.6 nM
CN([C@@H]1CCCc2c1cnn2CC(=O)O)S(=O)(=O)c1cc(C2CCCC2)cc(C(F)(F)F)c1 [Example 18-1a, {(R)-4-[(3-Cyclopentyl-5-trifluoromethyl-benzenesulfonyl)-methyl-amino]-4,5,6,7-tetrahydro-indazol-1-yl}-acetic acid]	28.6 nM
CC(=O)c1cc(C(F)(F)F)cc(S(=O)(=O)N(C)[C@@H]2CCCc3c2cnn3CC(=O)O)c1 [Example 19-1a, {(R)-4-[(3-Acetyl-5-trifluoromethyl-benzenesulfonyl)-methyl-amino]-4,5,6,7-tetrahydro-indazol-1-yl}-acetic acid]	7 nM
CN([C@@H]1CCCc2c1cnn2CC(=O)O)S(=O)(=O)c1cc(C(C)(F)F)cc(C(F)(F)F)c1 [Example 20-1a, ((R)-4-{[3-(1,1-Difluoro-ethyl)-5-trifluoromethyl-benzenesulfonyl]-methyl-amino}-4,5,6,7-tetrahydro-indazol-1-yl)-acetic acid]	3.5 nM
CN([C@@H]1CCCc2c1cnn2C(C)(C)C(=O)O)S(=O)(=O)c1cc(C(F)(F)F)cc(C(F)(F)F)c1 [Example 21-1a, 2-{(R)-4-[(3,5-Bis-trifluoromethyl-benzenesulfonyl)-methyl-amino]-4,5,6,7-tetrahydro-indazol-1-yl}-2-methyl-propionic acid]	278 nM
CC(=O)Nc1cccc(S(=O)(=O)NC2CCCc3c2cnn3CC(=O)O)c1 (stereo not shown) [Example 22-1a, [4-(3-Acetylamino-benzenesulfonylamino)-4,5,6,7-tetrahydro-indazol-1-yl]-acetic acid]	80.1 nM
CS(=O)(=O)Nc1cccc(S(=O)(=O)NC2CCCc3c2cnn3CC(=O)O)c1 (stereo not shown) [Example 23-1a, [4-(3-Methanesulfonylamino-benzenesulfonylamino)-4,5,6,7-tetrahydro-indazol-1-yl]-acetic acid]	39.5 nM
CN([C@@H]1CCCc2c1cnn2CC(=O)O)S(=O)(=O)c1cc(N2CCCC2)cc(C(F)(F)F)c1 [Example 24-1a, {(R)-4-[Methyl-(3-pyrrolidin-1-yl-5-trifluoromethyl-benzenesulfonyl)-amino]-4,5,6,7-tetrahydro-indazol-1-yl}-acetic acid]	38.1 nM

Reference: patent publication US8124641B2, “Aminotetrahydroindazoloacetic acids” (Hoffmann-La Roche Inc., priority 2008, dated 2012)
